Data: patent US20230398068A1 (priority 2020, published 2023)

Legend:
[1] = Transfer rate assessment, liquid formulation to aerosol (Cambridge filter pad, LC-HR-MS); details: 30 puffs collected
[2] = Thermal decomposition during thermal aerosolization (LC-HR-MS); details: LC-HR-MS spectra of aerosol sample
[3] = test system: SARS-CoV-2 clinically isolated strain; details: Vero cells, 24 hours, Yao et al.; cited from earlier work
[4] = Aerosol particle size distribution (Aerodynamic Particle Sizer); details: thermal aerosolization 200-220° C., 40 mg/mL in propylene glycol
[5] = test system: novel coronavirus (2019-nCoV); details: cited from earlier work
[6] = Frisk-Holmberg et al., Cui et al.; cited from earlier work
[7] = test system: 3D organotypic human bronchial cultures; test: Transepithelial electrical resistance (TEER); details: post 24 h exposure

With `CCN(CCO)CCCC(C)Nc1ccnc2cc(Cl)ccc12` (stereo not shown) [hydroxychloroquine] the “amount per puff in aerosol” value ([1]; 100 mg/mL hydroxychloroquine liquid formulation) was 330.32 µg and the “decomposition during thermal aerosolization” value [2] was “no decomposition”.
In the case of `CCN(CC)CCCC(C)Nc1ccnc2cc(Cl)ccc12` (stereo not shown) [chloroquine], the “amount per puff in aerosol” value ([1]; 40 mg/mL chloroquine liquid formulation) is listed as 149.69 µg, the “decomposition during thermal aerosolization” value [2] is listed as “no decomposition” and the EC50 [3] is listed as 23.9 µM. For the same compound, the “median aerodynamic diameter of aerosol particles” value [4] was 1.3 μm, the EC50 ([5]; block of COVID-19 infection in vitro, Wang et al., read-out: half-maximal effective concentration (EC50)) was 1.13 µM and the “in vitro EC50” value ([5]; values from Wang et al.) was 0.362 µg/mL. For the same compound, the “in vitro EC90” value ([5]; values from Wang et al.) was 2.208 µg/mL, the “plasma concentration at which no adverse reactions are observed” value [6] was 400 ng/mL and the “warning limit plasma concentration at which 80% of the subjects showed adverse effects” value [6] was 800 ng/mL. The TEER ([7]; 50 puffs) was “very low TEER values for two replicates” and the TEER ([7]; 100 puffs) was “no overall effect”.
